These results are taken from patent publication US10538569B2, “Fusion polypeptide containing GLP and immunoglobulin hybrid Fc and use thereof” (GENEXINE, INC., priority 2014, dated 2020).

Data set [1] in a line: PK profile of GLP-2-2G peptide, GLP-2-hyFc5 and GLP-2-hyFc9, subcutaneous, rats. Also noted: species or system Sprague Dawley rats. As to conditions: in vivo, sc, rat, serum, GLP-2 ELISA kit. How it is done: In order to confirm the pharmacokinetic profiles (PK profiles) of the GLP-2-hyFc5 and GLP-2-hyFc9 fusion polypeptides prepared above, experiments were performed as follows.
Male Sprague Dawley rats (3 rats/group) were administered subcutaneously with respective proteins (GLP-2-2G peptide, GLP-2-hyFc5, and GLP-2-hyFc9). Blood samples were collected before the administration and after the administration at 0.08-, 0.16-, 0.5-, 2-, 4-, 8-, 24-, 48-, 96-, 120-, and 168 hours, respectively. The blood samples were stored at room temperature for 30 minutes for agglutination. The samples were centrifuged at 3000 rpm for 10 minutes to obtain serum from each sample and then stored in a deep freezer. The samples were quantitated by dilution to be analyzed in a position on a straight line of standard curve using GLP-2 kit (Millipore, Cat. No. EZGLP2-37K).
A general note: An ELISA detects its analyte on a solid surface through an enzyme-linked reagent.

The conditions of data set [2]: cited from earlier work.

What is called half-life is the time in which the quantity being followed falls by half. A low value points to fast loss.

With `CC[C@H](C)[C@H](NC(=O)[C@H](Cc1ccccc1)NC(=O)[C@H](CC(=O)O)NC(=O)[C@H](CCCNC(=N)N)NC(=O)[C@H](C)NC(=O)[C@H](C)NC(=O)[C@H](CC(C)C)NC(=O)[C@H](CC(N)=O)NC(=O)[C@H](CC(=O)O)NC(=O)[C@H](CC(C)C)NC(=O)[C@@H](NC(=O)[C@@H](NC(=O)[C@H](CC(N)=O)NC(=O)[C@H](CCSC)NC(=O)[C@H](CCC(=O)O)NC(=O)[C@H](CC(=O)O)NC(=O)[C@H](CO)NC(=O)[C@H](Cc1ccccc1)NC(=O)[C@H](CO)NC(=O)CNC(=O)[C@H](CC(=O)O)NC(=O)CNC(=O)[C@@H](N)Cc1c[nH]cn1)[C@@H](C)O)[C@@H](C)CC)C(=O)N[C@@H](CC(N)=O)C(=O)N[C@@H](Cc1c[nH]c2ccccc12)C(=O)N[C@@H](CC(C)C)C(=O)N[C@H](C(=O)N[C@@H](CCC(N)=O)C(=O)N[C@H](C(=O)N[C@@H](CCCCN)C(=O)N[C@H](C(=O)N[C@H](C(=O)N[C@@H](CC(=O)O)C(=O)O)[C@@H](C)O)[C@@H](C)CC)[C@@H](C)O)[C@@H](C)CC` [GLP-2-2G, reference compound], in data set [1], the half-life was 72 min.

For glucagon like peptide-2 [GLP-2], the in-vivo half-life result in data set [2] is “about 7 minutes”.
